Reference: PubChem BioAssay (NCI)
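Grown in 96-well plates, cells were treated for 48 hours with each compound at five concentrations. Insufficient inhibition: endpoint recorded as highest concentration tested. TGI denotes the concentration required for complete inhibition of growth.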

Legend:
Assay in all cases: growth of human tumour cells (NCI), 48 h
[1] = test system: U251 CNS
[2] = test system: CAKI-1 renal
[3] = test system: SF-295 CNS
[4] = test system: HT29 colon
[5] = test system: NCI-H23 lung
[6] = test system: KM12 colon
[7] = test system: SK-OV-3 ovarian
[8] = test system: OVCAR-4 ovarian
[9] = test system: MOLT-4 leukemia
[10] = test system: SK-MEL-28 melanoma
[11] = test system: IGROV1 ovarian
[12] = test system: A498 renal
[13] = test system: RPMI-8226 leukemia
[14] = test system: MDA-N
[15] = test system: SF-539 CNS

CN(C)CCc1c2c(nc3ccccc13)C(=O)c1cccnc1C2=O
TGI [1]: 4.3 µM | TGI [2]: 4.62 µM | TGI [3]: 1.03 µM | TGI [4]: 8.35 µM | TGI [5]: 0.49 µM | TGI [6]: 1.38 µM | TGI [7]: 2.52 µM | TGI [8]: 2.79 µM | TGI [9]: 6.71 µM | TGI [10]: 1.76 µM | TGI [11]: 2.14 µM | TGI [12]: 1.72 µM | TGI [13]: 1.82 µM | TGI [14]: 1.38 µM | TGI [15]: 0.671 µM

CC(C)(C)OC(=O)NCCCCC(N)NC(=O)c1ccccc1 (stereo not given)
TGI [1]: > 100 µM | TGI [2]: > 100 µM | TGI [3]: > 100 µM | TGI [4]: > 100 µM | TGI [5]: > 100 µM | TGI [6]: > 100 µM | TGI [7]: > 100 µM | TGI [8]: > 100 µM | TGI [9]: > 100 µM | TGI [10]: > 100 µM | TGI [11]: > 100 µM | TGI [12]: > 100 µM | TGI [13]: > 100 µM | TGI [14]: > 100 µM | TGI [15]: > 100 µM

CC(=O)OCC1OC(OCCCOP(=S)(OCCC#N)OCC2OC(n3ccc(N)nc3=O)C(OC(=O)c3ccccc3)C2OC(=O)c2ccccc2)C(OC(C)=O)C(OC(C)=O)C1OC(C)=O (stereo not given)
TGI [1]: > 100 µM | TGI [2]: > 100 µM | TGI [3]: > 100 µM | TGI [4]: > 100 µM | TGI [5]: > 100 µM | TGI [6]: > 100 µM | TGI [7]: > 100 µM | TGI [8]: > 100 µM | TGI [9]: > 100 µM | TGI [10]: > 100 µM | TGI [11]: > 100 µM | TGI [12]: > 100 µM | TGI [13]: > 100 µM | TGI [14]: > 100 µM | TGI [15]: > 100 µM

COC(=O)C(Cc1c[nH]c2ccccc12)N=C1Nc2ccncc2S(=O)(=O)N1c1cccc(OC(C)C)c1 (stereo not given)
TGI [1]: > 100 µM | TGI [2]: > 100 µM | TGI [3]: > 100 µM | TGI [4]: > 100 µM | TGI [5]: 85.8 µM | TGI [6]: > 100 µM | TGI [7]: > 100 µM | TGI [8]: > 100 µM | TGI [9]: 75.8 µM | TGI [10]: > 100 µM | TGI [11]: > 100 µM | TGI [12]: > 100 µM | TGI [13]: 54.4 µM | TGI [14]: > 100 µM | TGI [15]: > 100 µM

CCc1ccc2c(c1)N(CC(C)CN(C)C)c1ccccc1S2 (stereo not given)
TGI [1]: 17.4 µM | TGI [2]: 18.3 µM | TGI [3]: 21.5 µM | TGI [4]: 12.5 µM | TGI [5]: 21.8 µM | TGI [6]: 16.6 µM | TGI [7]: 18.7 µM | TGI [8]: 17 µM | TGI [9]: 1.91 µM | TGI [10]: 5.45 µM | TGI [11]: 15 µM | TGI [12]: 21.8 µM | TGI [13]: 6.28 µM | TGI [14]: 17.4 µM | TGI [15]: 24.1 µM

CCCc1[nH]c2ccccc2c1-c1c(CCC)[nH]c2ccccc12
TGI [1]: 21.9 µM | TGI [2]: 38.5 µM | TGI [3]: 32.8 µM | TGI [4]: 22.2 µM | TGI [5]: 26.8 µM | TGI [6]: > 61.2 µM | TGI [7]: 65.5 µM | TGI [8]: > 68.2 µM | TGI [9]: > 100 µM | TGI [10]: 21.6 µM | TGI [11]: 32.4 µM | TGI [12]: > 100 µM | TGI [13]: > 100 µM | TGI [14]: 24.4 µM | TGI [15]: 36.1 µM

CN(C)CCNC(=O)c1cccc2c(NC(CCC(N)=O)C(=O)O)c3ccccc3nc12 (stereo not given)
TGI [1]: > 100 µM | TGI [2]: > 100 µM | TGI [3]: 25.5 µM | TGI [4]: 41.7 µM | TGI [5]: 18.4 µM | TGI [6]: 59.1 µM | TGI [7]: 54.9 µM | TGI [8]: 60.6 µM | TGI [9]: 71.3 µM | TGI [10]: 38.1 µM | TGI [11]: 36.6 µM | TGI [12]: 37.2 µM | TGI [13]: > 100 µM | TGI [14]: 31.4 µM | TGI [15]: 21.7 µM

COc1cc(CNc2nc3ccccc3nc2C(=O)O)cc(OC)c1OC
TGI [1]: > 100 µM | TGI [2]: > 100 µM | TGI [3]: > 100 µM | TGI [4]: > 100 µM | TGI [5]: > 100 µM | TGI [6]: > 100 µM | TGI [7]: > 100 µM | TGI [8]: > 100 µM | TGI [9]: > 100 µM | TGI [10]: > 100 µM | TGI [11]: > 100 µM | TGI [12]: > 100 µM | TGI [13]: > 100 µM | TGI [14]: > 100 µM | TGI [15]: > 100 µM

Clc1ccc2oc(CCc3ccccc3)nc2c1
TGI [1]: > 100 µM | TGI [2]: > 100 µM | TGI [3]: > 100 µM | TGI [4]: > 100 µM | TGI [5]: > 100 µM | TGI [6]: > 100 µM | TGI [7]: > 100 µM | TGI [8]: > 100 µM | TGI [9]: > 100 µM | TGI [10]: > 100 µM | TGI [11]: > 100 µM | TGI [12]: 60 µM | TGI [13]: > 100 µM | TGI [14]: > 100 µM | TGI [15]: > 100 µM

N#C/C(C(=S)NCc1ccccc1)=C(/N)N1CCCC1
TGI [1]: > 100 µM | TGI [2]: > 100 µM | TGI [3]: > 100 µM | TGI [4]: > 100 µM | TGI [5]: > 100 µM | TGI [6]: > 100 µM | TGI [7]: > 100 µM | TGI [8]: > 100 µM | TGI [9]: > 100 µM | TGI [10]: > 100 µM | TGI [11]: > 100 µM | TGI [12]: > 100 µM | TGI [13]: > 100 µM | TGI [14]: > 100 µM | TGI [15]: > 100 µM
